{"source": "paper PMC5007466", "about": "“VCP recruitment to mitochondria causes mitophagy impairment and neurodegeneration in models of Huntington's disease” (Nature Communications, 2016)", "key": {"[1]": {"system": "interaction between VCP and UBXD1", "experiment": "Co-immunoprecipitation VCP/UBXD1", "type": "cell-based", "conditions": "HV-3 treatment; total cell lysates, IP/WB", "procedure": "(b) Stick drawings of VCP and Htt main domains. […] Immunoprecipitates were analysed by WB with the indicated antibodies. […] VCP mitochondrial levels were determined by WB. Loading control: VDAC. Data are mean±s.e.m. (g–i) ANOVA with Holm-Sidak post hoc test."}, "YAC128 mice": {"system": "YAC128 mice", "experiment": "Rotarod performance", "type": "in vivo, mouse", "conditions": "YAC128, 3 mg/kg/day from 3 months; from 6 to 12 months of age, n=15–20", "from_the_text": "YAC128 (FVB-Tg(YAC128)53Hay/J, JAX stock number: 004938) breeders (FVB/N genetic background) were purchased from Jackson Laboratories. The YAC128 mice contain a full-length human huntingtin gene modified with a 128 CAG repeat expansion in exon 1. The mice were mated, bred and genotyped in the animal facility of Case Western Reserve University. Male mice at the ages of 2, 3, 6, 9 and 12 months were used in the study.\n(§1) YAC128 mice (Tg) and their age-matched wt littermates were implanted with an osmotic pump containing TAT control peptide or HV-3 peptide (3 mg/kg/day, each) starting from the age of 3 months. The pump was replaced once every month. By the age of 12 months, the treatments were terminated and the mouse samples were harvested for analysis.\nThe motor coordination and balance of YAC128 mice were tested on an accelerating Rotarod (IITC Life Sciences, Serials 8) at the ages of 2, 3, 6, 9 and 12 months. Training and baseline testing for motor function tasks were conducted at 2 months of age. For training, mice were given three 120-s trials per day at a fixed-speed of 15 r.p.m. for three consecutive days. During the testing phase, the Rotarod accelerated from 5 to 40 r.p.m. over 3 min; the maximum score was 300 s. Rotarod scores were the average of three trials per day (with 2 h rest between trials) for 3 consecutive days."}, "R6/2 mice": {"system": "R6/2 mice", "experiment": "DARPP-32 immunostaining of striatum", "type": "in vivo, mouse", "conditions": "R6/2, 3 mg kg^−1 per day, n=6", "procedure": "Male hemizygous R6/2 mice (Tg) and their age-matched wt littermates (5-week-old) were implanted with a 28-day osmotic pump (Alzet, Cupertino CA) containing TAT control peptide or HV-3 peptide, which delivered peptides to the mice at a rate of 3 mg kg^−1 per day. The first pump was implanted subcutaneously in the back of 5-week-old mice between the shoulders and replaced once, after 4 weeks.\nMice were deeply anaesthetized and transcardially perfused with 4% paraformaldehyde in PBS. Brains were processed for paraffin embedment. Brain sections (5 μm, coronal) were used for immunohistochemical localization of DARPP-32 (1:500, Epitomics) using the IHC Select HRP/DAB kit (Millipore). Quantitation of DARPP-32 immunostaining was conducted using NIH image J software. The same image exposure times and threshold settings were used for sections from all treatment groups."}, "[2]": {"system": "wt mice (YAC128 littermates)", "experiment": "Motor activity of wt littermates of YAC128", "type": "in vivo, mouse", "conditions": "3 to 12 months of age, 3 mg/kg/day", "procedure": "as §1\nGross locomotor activity was assessed in R6/2 mice and age-matched wt littermates at the ages of 13 weeks and in YAC128 mice and age-matched wt littermates at the ages of 2, 3, 6, 9, and 12 months. In an activity chamber (Omnitech Electronics, Inc), mice were placed in the center of the chamber and allowed to explore while being tracked by an automated beam system (Vertax, Omnitech Electronics Inc). Distance moved, horizontal, vertical, and rearing activities were recorded. Because R6/2 mice were sensitive to changes in environment and handling, we only conducted one-hour locomotor activity analysis for R6/2 mice and wt littermates. We performed 24 h of locomotor activity analysis for YAC128 mice and their wt littermates.\nThe motor coordination and balance of YAC128 mice were tested on an accelerating Rotarod (IITC Life Sciences, Serials 8) at the ages of 2, 3, 6, 9 and 12 months. Training and baseline testing for motor function tasks were conducted at 2 months of age. […]"}}}
{"compound": "CSCC[C@H](NC(=O)[C@@H](NC(=O)[C@H](CC(C)C)NC(=O)[C@@H](NC(=O)[C@H](Cc1c[nH]cn1)NC(=O)CCCCCNC(=O)[C@H](CCCNC(=N)N)NC(=O)[C@H](CCCNC(=N)N)NC(=O)[C@H](CCCNC(=N)N)NC(=O)[C@H](CCC(N)=O)NC(=O)[C@H](CCCNC(=N)N)NC(=O)[C@H](CCCNC(=N)N)NC(=O)[C@H](CCCCN)NC(=O)[C@H](CCCCN)NC(=O)[C@H](CCCNC(=N)N)NC(=O)CNC(=O)[C@@H](N)Cc1ccc(O)cc1)C(C)C)C(C)C)C(=O)N[C@@H](CS)C(=O)N[C@@H](C)C(=O)N[C@H](C(N)=O)[C@@H](C)O", "note": "[HV-3]", "values": [{"measurement": "interaction between VCP and UBXD1", "setting": "[1]", "result": "nor did it influence the interaction between VCP and its known binding protein UBXD1"}, {"measurement": "rotarod performance", "setting": "YAC128 mice", "result": "improved general movement activity and rotarod performance"}, {"measurement": "area of DARPP-32-immunostained cells in striatum", "setting": "R6/2 mice", "result": "increased by HV-3 treatment"}, {"measurement": "motor activity of wt mice", "setting": "[2]", "result": "did not affect motor activity in wt mice"}]}
